Source: paper PMC8175309, “Translational CNS Steady-State Drug Disposition Model in Rats, Monkeys, and Humans for Quantitative Prediction of Brain-to-Plasma and Cerebrospinal Fluid-to-Plasma Unbound Concentration Ratios” (The AAPS Journal, 2021)
Read-outs that look alike come from different tables or passages of the source. Values belong to the molecule of their own block, whether it stands above or below them.

Tests used:
[1] = cited from earlier work
MDR1 = MDR1 (Homo sapiens, UniProt P08183); test: in vitro; details: dog, MDCK-MDR1, pH 7.4
Method: (§1) To the compounds available internally, in vitro efflux ratios for MDR1 and BCRP were determined by the following procedure (Supplemental Table 2). Test compound stock solutions in dimethyl sulfoxide (DMSO) were diluted in transport buffer (Hanks’ balanced salt solution (HBSS) with 10 mM HEPES, pH 7.4) to a concentration of 1 μM (DMSO < 1%) and applied to the apical or basolateral side of a cell monolayer derived from Madin-Darby canine kidney (MDCK)-MDR1 and MDCK-BCRP cells. Permeation of the test compounds from apical to basolateral (A to B) direction or B to A direction was measured in duplicate. The plate was incubated for 1 h in a CO2 incubator at 37±1°C with 5% CO2 at saturated humidity without shaking. In addition, the efflux ratio of each compound was also determined. Test and reference compounds were quantified by LC-MS/MS analysis based on the peak area ratio of analyte/internal standard.
(§2) The apparent permeability coefficient Papp (cm/s) was calculated by using Eq. 1: 1 Papp=dCr/dt×Vr/A×C0 where dCr/dt is the cumulative concentration of the compound in the receiver chamber as a function of time (μM/s); Vr is the volume of the solution in the receiver chamber (0.075 mL on the apical side, 0.25 mL on the basolateral side); A is the surface area for transport, i.e., 0.0804 cm^2 for the area of the monolayer; and C0 is the initial concentration (μM) in the donor chamber.
(§3) The efflux ratio was calculated using Eq. 2: 2 Efflux ratio=Papp,BtoA/Papp,AtoB

[2] = cited from earlier work; remark: listed apart in the source
BCRP = molecular target: T1, BCRP (Homo sapiens, UniProt Q9UNQ0); test: Transcellular transport across MDCK-BCRP cell monolayers (efflux ratio); details: dog, pH 7.4
T1 sequence (Q9UNQ0 1-655): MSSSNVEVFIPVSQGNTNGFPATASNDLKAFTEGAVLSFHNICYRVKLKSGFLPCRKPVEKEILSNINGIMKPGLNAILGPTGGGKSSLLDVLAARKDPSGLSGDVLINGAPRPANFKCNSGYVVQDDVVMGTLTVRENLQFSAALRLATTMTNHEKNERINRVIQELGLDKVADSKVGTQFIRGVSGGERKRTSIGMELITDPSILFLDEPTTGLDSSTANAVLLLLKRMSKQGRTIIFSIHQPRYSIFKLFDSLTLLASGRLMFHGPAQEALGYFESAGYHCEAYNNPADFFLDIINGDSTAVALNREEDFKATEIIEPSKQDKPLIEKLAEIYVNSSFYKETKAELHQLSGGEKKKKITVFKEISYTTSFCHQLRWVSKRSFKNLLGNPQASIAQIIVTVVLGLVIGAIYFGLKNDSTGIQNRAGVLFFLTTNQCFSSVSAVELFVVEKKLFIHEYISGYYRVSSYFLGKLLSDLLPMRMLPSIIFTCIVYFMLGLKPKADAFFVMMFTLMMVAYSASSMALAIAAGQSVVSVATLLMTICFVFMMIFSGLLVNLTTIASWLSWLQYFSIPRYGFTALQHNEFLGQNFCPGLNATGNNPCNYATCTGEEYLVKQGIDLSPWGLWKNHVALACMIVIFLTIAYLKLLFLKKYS
Method: as §1, §2, §3

in vivo [3] = details: for Kp uu at 6 h: cynomolgus monkey, in vivo
Method: Monkey experiments were conducted internally or at the Drug Safety Research Laboratories in Shin Nippon Biomedical Laboratories via consignment to Axcelead Drug Discovery Partners. […] Detailed dosage regimen for each compound is summarized in Supplemental Table 3. […] Each cassette was assigned to a separate group of monkeys. The vehicle was saline or a mixture of dimethylacetamide and 1,3-butanediol (1:1, v/v). At the end of the 6-h infusion or 1 h after intravenous bolus administration, the monkeys were anesthetized, and whole blood, CSF, and whole brain were collected. Blood was collected using the anticoagulant, heparin sodium, and immediately centrifuged; the plasma was transferred to polypropylene tubes. Then, ketamine hydrochloride (50 mg/mL; 0.2 mL/kg; 10 mg/kg) was intramuscularly administered. CSF was collected after lumbar puncture using a spinal needle (22–25G) and a syringe pre-wetted with 10% CHAPS solution to prevent adsorption of compounds to all the equipment during pretreatment. CSF samples were immediately centrifuged, and the supernatant layers were transferred to polypropylene tubes. […] After collecting the cerebellum, hippocampus, and cerebral cortex from the whole brain, these were washed with cold saline, weighed, and homogenized immediately in 4 volumes of ice-cold 100 mmol/L sodium phosphate buffer. All samples were stored at –80°C until analysis by LC-MS/MS. Each sample (50 μL) was mixed with the working solution (the mixture of dimethyl sulfoxide and acetonitrile (2:8, v/v)), and protein was precipitated by the addition of 150 μL acetonitrile containing the internal standards (5 ng/mL alprenolol and diclofenac). After centrifugation at 5,250 rpm and 4°C for 5 min, the supernatant (150 μL) was transferred to a polypropylene 96-well plate (Corning; Corning, NY, USA) and completely evaporated under a gentle stream of N2. The residue was reconstituted in dilution solution (mobile phase A/B (7:3, v/v)), and the supernatant was analyzed by LC-MS/MS.
Each sample (50 μL) was mixed with the working solution (the mixture of dimethyl sulfoxide and acetonitrile (2:8, v/v)), and the protein was precipitated by adding 150 μL acetonitrile containing internal standards (5 ng/mL alprenolol and diclofenac). After centrifugation at 5250 rpm and 4°C for 5 min, the supernatant (150 μL) was transferred to a polypropylene 96-well plate (Corning) and completely evaporated under a gentle stream of N2. The residue was reconstituted in mobile phase A/B (7:3, v/v)), and the supernatant was analyzed by LC-MS/MS. API5000 and QTRAP5500 (AB SCIEX, Framingham, MA, USA) equipped with Ultra-Fast Liquid Chromatography (Shimadzu, Kyoto, Japan) were used for determination of drug concentrations. Reversed-phase chromatography was performed using Shim-pack XR ODS (2.2 μm, 2.0×30 mm). Mobile phase A consisted of 10 mM ammonium formate with 0.2% formic acid, and mobile phase B contained acetonitrile with 0.2% formic acid. […] The mass spectrometer was operated in the positive ionization mode with multiple reaction monitoring (MRM). The MRM parameters (Q1 ion, Q3 ion, DP, EP, CE, and CXP) for monitoring the compounds are shown in Supplemental Table 4. Data acquisition and processing were performed using Analyst 1.6.2 (AB SCIEX, Framingham, MA, USA).
(§4) To perform correlation analyses between the observed Kp,uu,brain and Kp,uu,CSF, and the model-based prediction of Kp,uu,brain and Kp,uu,CSF, data from literature information were integrated into the internally obtained data for these assessments (Supplemental Table 2) ([17],[22]–[24],[27]–[33]). When only the total concentrations in plasma, CSF, and brain were available, the total concentration ratio in plasma to CSF or brain (Kp,CSF or Kp,brain, respectively) was estimated, followed by calculation of Kp,uu,CSF or Kp,uu,brain based on Eqs.

[4] = monkey, cited from earlier work
in vivo [5] = details: in vivo; for Kp uu: rat
Method: The CSF samples collected from cisterna magna in rats were stored at –80°C until analysis by liquid chromatography-tandem mass spectrometry (LC-MS/MS). Before performing the LC-MS/MS analysis, these samples were thawed on ice and mixed with three volumes of acetonitrile. The acetonitrile mixtures were vortexed and centrifuged, and the supernatant was collected. After dilution with mobile phase A (a mixture of 10 mM ammonium formate and formic acid at 100:0.2 (v/v)), the supernatant was injected into the LC-MS/MS system.
as §4

MDR1, sequence (P08183 whole entry): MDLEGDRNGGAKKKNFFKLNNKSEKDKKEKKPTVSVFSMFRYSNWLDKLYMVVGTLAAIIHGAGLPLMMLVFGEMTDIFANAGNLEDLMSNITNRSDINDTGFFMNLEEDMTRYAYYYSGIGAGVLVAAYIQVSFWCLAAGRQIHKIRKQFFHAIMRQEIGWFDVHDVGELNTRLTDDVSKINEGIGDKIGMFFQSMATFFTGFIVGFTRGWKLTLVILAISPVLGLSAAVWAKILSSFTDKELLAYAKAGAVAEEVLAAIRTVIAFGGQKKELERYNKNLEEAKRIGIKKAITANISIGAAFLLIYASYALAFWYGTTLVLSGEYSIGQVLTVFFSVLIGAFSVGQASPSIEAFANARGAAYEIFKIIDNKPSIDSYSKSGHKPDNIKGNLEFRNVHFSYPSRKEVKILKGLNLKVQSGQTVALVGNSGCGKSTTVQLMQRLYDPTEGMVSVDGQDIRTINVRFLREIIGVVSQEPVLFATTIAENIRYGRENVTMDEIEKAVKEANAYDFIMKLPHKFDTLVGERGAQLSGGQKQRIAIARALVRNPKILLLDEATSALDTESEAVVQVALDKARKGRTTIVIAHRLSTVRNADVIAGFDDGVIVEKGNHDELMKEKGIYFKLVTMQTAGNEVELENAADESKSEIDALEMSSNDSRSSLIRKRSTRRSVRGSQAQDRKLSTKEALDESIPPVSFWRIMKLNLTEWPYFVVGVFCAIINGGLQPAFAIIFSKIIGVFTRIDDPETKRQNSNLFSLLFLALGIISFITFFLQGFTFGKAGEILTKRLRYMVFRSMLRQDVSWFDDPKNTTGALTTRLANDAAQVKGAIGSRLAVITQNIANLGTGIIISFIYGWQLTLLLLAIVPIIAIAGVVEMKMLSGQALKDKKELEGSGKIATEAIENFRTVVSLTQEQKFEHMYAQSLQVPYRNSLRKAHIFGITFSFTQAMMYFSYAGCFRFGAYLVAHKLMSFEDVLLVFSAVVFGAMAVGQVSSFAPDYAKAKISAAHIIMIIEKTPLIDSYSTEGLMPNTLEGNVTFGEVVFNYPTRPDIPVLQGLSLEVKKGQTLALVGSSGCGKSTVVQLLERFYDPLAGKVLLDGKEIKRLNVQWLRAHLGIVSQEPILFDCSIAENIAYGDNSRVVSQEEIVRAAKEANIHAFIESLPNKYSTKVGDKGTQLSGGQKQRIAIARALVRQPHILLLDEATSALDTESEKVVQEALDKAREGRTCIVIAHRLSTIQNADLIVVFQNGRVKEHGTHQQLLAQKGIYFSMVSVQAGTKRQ

efflux ratio at 1 h, 1 μM (MDR1): 5.7
efflux ratio at 1 h, 1 μM (BCRP): 1.2
Compound: CC(C)NCC(O)COc1cccc2[nH]ccc12 (centres unmarked) [Pindolol]
Kp,uu,CSF Human ([1]; *4 ref Friden et al. (21)): 0.52
Kp,uu,CSF Rat ([2]; *4 ref Friden et al. (21)): 0.11
Kp,uu,brain Rat ([2]; *4 ref Friden et al. (21)): 0.500

Kp uu at 6 h (in vivo [3]; Kp,uu,CSF Monkey): 0.289
Kp uu at 6 h (in vivo [3]; Kp,uu,brain Monkey): 0.253
efflux ratio at 1 h, 1 μM (MDR1): 52
efflux ratio at 1 h, 1 μM (BCRP): 18
Compound: COc1cc2nc(N3CCN(C(=O)c4ccco4)CC3)nc(N)c2cc1OC [Prazosin]

efflux ratio at 1 h, 1 μM (BCRP): 1
Compound: CC(C)NCC(O)COc1cccc2ccccc12 (centres unmarked) [Propranolol]
Kp,uu,CSF Human ([1]; *4 ref Friden et al. (21)): 0.42
Kp,uu,CSF Monkey ([4]; *9 ref Nagaya et al. (19)): 0.461
Kp,uu,brain Monkey ([4]; *9 ref Nagaya et al. (19)): 0.947
Kp,uu,CSF Rat ([2]; *4 ref Friden et al. (21)): 0.49

Kp uu (in vivo [5]; Kp,uu,CSF Rat): 0.419
Kp uu (in vivo [5]; Kp,uu,brain Rat): 0.0359
efflux ratio at 1 h, 1 μM (BCRP): 0.9
Compound: C=C[C@H]1C[N@@]2CC[C@H]1C[C@@H]2[C@@H](O)c1ccnc2ccc(OC)cc12 [Quinidine]
Kp,uu,brain Monkey ([4]; *8 ref Uchida et al. (31)): 0.0744
Kp,uu,CSF Monkey ([4]; *9 ref Nagaya et al. (19)): 0.169
Kp,uu,brain Monkey ([4]; *9 ref Nagaya et al. (19)): 0.0658
Kp,uu,CSF Rat ([2]; *7 ref Kodaira et al. (20)): 0.0911
Kp,uu,brain Rat ([2]; *7 ref Kodaira et al. (20)): 0.026

efflux ratio at 1 h, 1 μM (MDR1): 0.5
efflux ratio at 1 h, 1 μM (BCRP): 1.2
Compound: CN[C@H]1CC[C@@H](c2ccc(Cl)c(Cl)c2)c2ccccc21 [Sertraline]

Kp,uu,CSF Rat (in vivo [5]): 2.06
Kp,uu,brain Rat (in vivo [5]): 0.0228
Kp,uu,CSF Monkey (in vivo [3]; monkey, lumbar CSF, *1 data internally obtained): 0.0798
Kp,uu,brain Monkey (in vivo [3]; monkey, *1 data internally obtained): 0.0199
Compound: CNC(=O)c1cc(Oc2ccc(NC(=O)Nc3ccc(Cl)c(C(F)(F)F)c3)cc2)ccn1 [Sorafenib]

efflux ratio at 1 h, 1 μM (MDR1): 1
efflux ratio at 1 h, 1 μM (BCRP): 1.1
Compound: Nc1c2c(nc3ccccc13)CCCC2 [Tacrine]
Kp,uu,CSF Human ([1]; in vivo): 0.74
Kp,uu,CSF Rat ([2]; in vivo): 0.67

efflux ratio at 1 h, 1 μM (MDR1): 25
efflux ratio at 1 h, 1 μM (BCRP): 0.7
Compound: CC1(C)O[C@@H]2[C@@H](CO[C@@]3(COS(N)(=O)=O)OC(C)(C)O[C@@H]23)O1 [Topiramate]
Kp,uu,CSF Human ([1]; *4 ref Friden et al. (21)): 1
Kp,uu,CSF Rat ([2]; *4 ref Friden et al. (21)): 0.63
Kp,uu,brain Rat ([2]; *4 ref Friden et al. (21)): 0.330

Compound: COc1ccc(C(CN(C)C)C2(O)CCCCC2)cc1 (centres unmarked) [Venlafaxine]
Kp,uu,brain Human ([1]; *3 ref Summerfield et al. (25)): 0.86
efflux ratio at 1 h, 1 μM (MDR1): 7.6
Kp,uu,brain Rat ([2]; *3 ref Summerfield et al. (25)): 1.074
efflux ratio at 1 h, 1 μM (BCRP): 0.7
